Assay results as given in ChEMBL document CHEMBL2401643, “The discovery of potent selective NPY Y(2) antagonists” (Bioorg Med Chem Lett, 2013).
Activity calls are given as the source filed them. The calls are words filed in the database; no cut-off is given here.

Tests used:
[1] = target: T1, Neuropeptide Y receptor type 2 (Homo sapiens, UniProt P49146); test: (§1) Displacement of [125I]PYY from NPY-Y2 receptor in human KAN-TS cell membranes after 1 hr by scintillation counting analysis
T1 sequence (P49146 whole entry): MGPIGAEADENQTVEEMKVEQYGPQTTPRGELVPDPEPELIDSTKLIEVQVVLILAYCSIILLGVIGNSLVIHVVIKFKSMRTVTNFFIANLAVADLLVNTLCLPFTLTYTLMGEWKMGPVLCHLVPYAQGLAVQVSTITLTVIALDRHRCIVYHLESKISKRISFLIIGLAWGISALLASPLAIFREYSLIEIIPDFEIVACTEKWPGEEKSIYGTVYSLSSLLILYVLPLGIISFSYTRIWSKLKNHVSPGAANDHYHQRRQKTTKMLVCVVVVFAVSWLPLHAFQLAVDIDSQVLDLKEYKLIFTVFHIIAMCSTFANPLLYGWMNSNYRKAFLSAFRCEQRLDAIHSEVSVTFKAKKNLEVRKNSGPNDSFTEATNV

[2] = Metabolic stability in rat liver microsomes assessed as compound remaining after 15 mins; format: ADME, Microsome; conditions: read-out: Stability
[3] = Metabolic stability in human liver microsomes assessed as compound remaining after 15 mins; format: ADME, Microsome; conditions: read-out: Stability
[4] = target: T2, Neuropeptide Y receptor type 2 (Homo sapiens) (UniProt P49146); test: as §1
T2 sequence (whole entry): T1 sequence (P49146 whole entry)

[5] = target: T3, Microsomal triglyceride transfer protein large subunit (Homo sapiens, UniProt P55157); test: Inhibition of MTP (unknown origin)-mediated triglyceride transfer from donor to acceptor vesicles preincubated for 5 mins followed by enzyme addition by [14C]-counting analysis
T3 sequence (P55157 whole entry): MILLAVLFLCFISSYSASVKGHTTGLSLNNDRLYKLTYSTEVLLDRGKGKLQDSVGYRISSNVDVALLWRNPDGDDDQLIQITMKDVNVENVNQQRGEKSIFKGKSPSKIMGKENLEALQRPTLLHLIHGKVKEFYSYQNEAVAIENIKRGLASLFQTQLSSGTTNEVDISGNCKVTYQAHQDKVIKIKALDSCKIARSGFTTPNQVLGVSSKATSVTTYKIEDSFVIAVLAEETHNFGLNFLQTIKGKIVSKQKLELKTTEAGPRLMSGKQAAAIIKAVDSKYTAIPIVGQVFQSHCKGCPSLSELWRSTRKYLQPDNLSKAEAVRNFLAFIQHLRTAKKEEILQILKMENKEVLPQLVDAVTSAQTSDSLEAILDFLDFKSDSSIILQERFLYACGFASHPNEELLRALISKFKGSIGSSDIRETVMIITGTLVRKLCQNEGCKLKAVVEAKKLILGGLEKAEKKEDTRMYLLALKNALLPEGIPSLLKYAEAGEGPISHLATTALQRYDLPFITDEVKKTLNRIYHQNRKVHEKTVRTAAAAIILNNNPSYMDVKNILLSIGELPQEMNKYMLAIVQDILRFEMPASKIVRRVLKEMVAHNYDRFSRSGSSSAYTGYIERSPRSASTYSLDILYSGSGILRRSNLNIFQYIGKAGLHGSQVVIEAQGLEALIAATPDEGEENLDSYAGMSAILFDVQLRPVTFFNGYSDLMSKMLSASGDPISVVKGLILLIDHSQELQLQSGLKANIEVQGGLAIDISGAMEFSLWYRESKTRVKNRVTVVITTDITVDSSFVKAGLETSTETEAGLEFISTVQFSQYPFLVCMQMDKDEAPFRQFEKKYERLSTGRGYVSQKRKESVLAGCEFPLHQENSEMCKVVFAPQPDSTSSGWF

[6] = system: Rattus norvegicus; test: Receptor occupancy in Sprague-Dawley rat brain at 10 mg/kg, sc by LC/MS analysis; format: functional
[7] = target: T1, Neuropeptide Y receptor type 2; test: Antagonist activity at NPY-Y2 receptor in human KAN-TS cell membranes assessed as inhibition of PYY-stimulated [35S]GTPgammaS binding preincubated for 30 mins prior to [35S]GTPgammaS-treatment measured after 1 hr; format: functional; conditions: read-out: pA2 (converted)
[8] = target: T3, Microsomal triglyceride transfer protein large subunit; test: Inhibition of MTP (unknown origin)

| SMILES | IC50 [1] | remaining at 0.25 h [2] | remaining at 0.25 h [3] | also measured |
| --- | --- | --- | --- | --- |
| CCN(CC)C(=O)C(c1ccccc1)C1CCN(c2ccc(NC(=O)c3ccccc3-c3cccnc3)cc2F)CC1 (centres undefined) | 7 nM | 98% | 73% |  |
| CCNC(=O)C(c1ccccc1)C1CCN(c2ccc(NC(=O)c3ccccc3-c3ccsc3)cc2F)CC1 (centres undefined) | 70 nM |  |  |  |
| CCNC(=O)C(c1ccccc1)C1CCN(c2ccc(NC(=O)c3c(C)noc3C)cc2F)CC1 (centres undefined) | 476 nM |  |  |  |
| CCNC(=O)C(c1ccccc1)C1CCN(c2ccc(NC(=O)c3ccccc3-c3ccccc3)cc2F)CC1 (centres undefined) | 12 nM |  |  |  |
| CCNC(=O)C(c1ccccc1)C1CCN(c2ccc(NS(=O)(=O)c3ccccc3-c3ccccc3)cc2F)CC1 (centres undefined) |  |  |  | Activity [4]: inactive |
| CCNC(=O)C(c1ccccc1)C1CCN(c2ccc(NC(=O)Nc3c(C)noc3C)cc2F)CC1 (centres undefined) |  |  |  | IC50 [5]: > 10000 nM; Occ [6]: inactive; Kb [7]: 3.98 nM |
| CCN(CC)C(=O)C(c1ccccc1)C1CCN(c2ccc(NC(=O)c3c(C)noc3C)cc2F)CC1 (centres undefined) | 37 nM | 3.3% | 5.3% | IC50 [5]: > 10000 nM; Occ ([6]; route subcutaneous): 50%; Kb [7]: 31.6 nM |
| CCN(CC)C(=O)C(c1ccccc1)C1CCN(c2ccc(NC(=O)Nc3c(C)noc3C)cc2F)CC1 (centres undefined) | 12 nM | 17% | 1.5% | IC50 [5]: > 10000 nM; Occ [6]: inactive; Kb [7]: 2 nM |
| CCNC(=O)C(c1ccccc1)C1CCN(c2ccc(C(=O)Nc3ccccc3-c3ccccc3)cc2F)CC1 (centres undefined) | 45 nM |  |  |  |
| CCNC(=O)C(c1ccccc1)C1CCN(c2ccc(NC(=O)c3ccccc3Br)cc2F)CC1 (centres undefined) | 665 nM |  |  |  |
| CCNC(=O)C(c1ccccc1)C1CCN(c2ccc(NC(=O)c3ccccc3-c3cccnc3)cc2F)CC1 (centres undefined) | 24 nM |  |  |  |
| CCN(CC)C(=O)C(c1ccccc1)N1CCN(c2ccc(NC(=O)c3ccccc3-c3cccnc3)cc2F)CC1 (centres undefined) |  | 1.7% | 1.4% | IC50 [8]: 710 nM |
| CCNC(=O)C(c1ccccc1)C1CCN(c2ccc(NC(=O)Nc3ccccc3-c3ccccc3)cc2F)CC1 (centres undefined) | 27 nM |  |  |  |
